Reference: the NIST ThermoML archive (doi:10.1016/j.fluid.2014.04.038)
Where “and” joins values, the source holds several entries; their conditions need not be identical. Equal values may be shown once. Numbers after ± are expanded uncertainties.

Settings: Hot wire method

CCF [fluoroethane]
thermal conductivity (327.04 K, 1095.3 kPa, Gas): 0.01963 ± 0.0012 W/m/K | thermal conductivity (327.1 K, 807.3 kPa, Gas): 0.01901 ± 0.0012 W/m/K | thermal conductivity (327.1 K, 968 kPa, Gas): 0.01947 ± 0.0012 W/m/K | thermal conductivity (327.18 K, 798.3 kPa, Gas): 0.01958 ± 0.0012 W/m/K | thermal conductivity (327.49 K, 616.5 kPa, Gas): 0.01891 ± 0.0012 W/m/K | thermal conductivity (327.67 K, 420.8 kPa, Gas): 0.01907 ± 0.0012 W/m/K | thermal conductivity (327.88 K, 999.2 kPa, Gas): 0.01944 ± 0.0012 W/m/K | thermal conductivity (328.12 K, 807.3 kPa, Gas): 0.01964 ± 0.0012 W/m/K | thermal conductivity (328.26 K, 616.5 kPa, Gas): 0.0193 ± 0.0012 W/m/K | thermal conductivity (328.79 K, 420.8 kPa, Gas): 0.01938 ± 0.0012 W/m/K | thermal conductivity (332.17 K, 969.9 kPa, Gas): 0.02009 ± 0.0012 W/m/K | thermal conductivity (332.31 K, 756.8 kPa, Gas): 0.01954 ± 0.0012 W/m/K | thermal conductivity (332.66 K, 396.8 kPa, Gas): 0.01951 ± 0.0012 W/m/K | thermal conductivity (332.66 K, 969.9 kPa, Gas): 0.02013 ± 0.0012 W/m/K | thermal conductivity (333.3 K, 756.8 kPa, Gas): 0.01971 ± 0.0012 W/m/K | thermal conductivity (333.74 K, 396.8 kPa, Gas): 0.01972 ± 0.0012 W/m/K | thermal conductivity (334.87 K, Liquid): 0.09073 ± 0.0037 W/m/K and 0.09116 ± 0.0037 W/m/K and 0.09121 ± 0.0037 W/m/K | thermal conductivity (335.25 K, Liquid): 0.09091 ± 0.0037 W/m/K and 0.09082 ± 0.0037 W/m/K | thermal conductivity (335.26 K, Liquid): 0.09123 ± 0.0037 W/m/K | thermal conductivity (335.66 K, Liquid): 0.09055 ± 0.0036 W/m/K and 0.09054 ± 0.0036 W/m/K | thermal conductivity (335.67 K, Liquid): 0.09089 ± 0.0037 W/m/K | thermal conductivity (336.09 K, 1491 kPa, Gas): 0.02082 ± 0.0013 W/m/K | thermal conductivity (336.27 K, 1198.3 kPa, Gas): 0.02033 ± 0.0013 W/m/K | thermal conductivity (336.49 K, 1758.2 kPa, Gas): 0.02175 ± 0.0013 W/m/K | thermal conductivity (336.67 K, 1491 kPa, Gas): 0.02077 ± 0.0013 W/m/K | thermal conductivity (336.83 K, 865.8 kPa, Gas): 0.01986 ± 0.0012 W/m/K | thermal conductivity (336.9 K, 1198.3 kPa, Gas): 0.02068 ± 0.0013 W/m/K | thermal conductivity (336.91 K, 706.3 kPa, Gas): 0.01983 ± 0.0012 W/m/K | thermal conductivity (337.06 K, 1758.2 kPa, Gas): 0.02164 ± 0.0013 W/m/K | thermal conductivity (337.27 K, 1491 kPa, Gas): 0.0208 ± 0.0013 W/m/K | thermal conductivity (337.33 K, 480.3 kPa, Gas): 0.02 ± 0.0012 W/m/K | thermal conductivity (337.56 K, 1198.3 kPa, Gas): 0.02055 ± 0.0013 W/m/K | thermal conductivity (337.61 K, 206.2 kPa, Gas): 0.02003 ± 0.0012 W/m/K | thermal conductivity (337.81 K, 865.8 kPa, Gas): 0.01999 ± 0.0012 W/m/K | thermal conductivity (337.89 K, 706.3 kPa, Gas): 0.01991 ± 0.0012 W/m/K | thermal conductivity (338.08 K, 480.3 kPa, Gas): 0.01991 ± 0.0012 W/m/K | thermal conductivity (338.76 K, 206.2 kPa, Gas): 0.02026 ± 0.0013 W/m/K | thermal conductivity (344.8 K, Liquid): 0.08543 ± 0.0034 W/m/K | thermal conductivity (344.82 K, Liquid): 0.08529 ± 0.0034 W/m/K and 0.08532 ± 0.0034 W/m/K | thermal conductivity (345.2 K, Liquid): 0.08496 ± 0.0034 W/m/K | thermal conductivity (345.21 K, Liquid): 0.08506 ± 0.0034 W/m/K and 0.08519 ± 0.0034 W/m/K | thermal conductivity (345.5 K, 2260 kPa, Gas): 0.0234 ± 0.0014 W/m/K | thermal conductivity (345.62 K, 2008 kPa, Gas): 0.02287 ± 0.0014 W/m/K | thermal conductivity (345.68 K, Liquid): 0.08484 ± 0.0034 W/m/K | thermal conductivity (345.7 K, Liquid): 0.08488 ± 0.0034 W/m/K | thermal conductivity (345.72 K, Liquid): 0.08489 ± 0.0034 W/m/K | thermal conductivity (345.73 K, 1253.4 kPa, Gas): 0.02123 ± 0.0013 W/m/K | thermal conductivity (345.76 K, 1802.5 kPa, Gas): 0.02255 ± 0.0014 W/m/K | thermal conductivity (345.91 K, 1001.2 kPa, Gas): 0.0213 ± 0.0013 W/m/K | thermal conductivity (346.04 K, 748.6 kPa, Gas): 0.02153 ± 0.0013 W/m/K | thermal conductivity (346.17 K, 2008 kPa, Gas): 0.02305 ± 0.0014 W/m/K | thermal conductivity (346.18 K, 454.4 kPa, Gas): 0.02091 ± 0.0013 W/m/K | thermal conductivity (346.2 K, 1802.5 kPa, Gas): 0.02205 ± 0.0014 W/m/K | thermal conductivity (346.23 K, 2260 kPa, Gas): 0.02334 ± 0.0014 W/m/K | thermal conductivity (346.43 K, 1560.1 kPa, Gas): 0.02199 ± 0.0014 W/m/K | thermal conductivity (346.52 K, 1253.4 kPa, Gas): 0.02134 ± 0.0013 W/m/K | thermal conductivity (346.59 K, 250.1 kPa, Gas): 0.02108 ± 0.0013 W/m/K | thermal conductivity (346.68 K, 1001.2 kPa, Gas): 0.02108 ± 0.0013 W/m/K | thermal conductivity (346.83 K, 454.4 kPa, Gas): 0.02085 ± 0.0013 W/m/K | thermal conductivity (346.87 K, 2260 kPa, Gas): 0.02339 ± 0.0014 W/m/K | thermal conductivity (346.91 K, 748.6 kPa, Gas): 0.02154 ± 0.0013 W/m/K | thermal conductivity (347.13 K, 2008 kPa, Gas): 0.02317 ± 0.0014 W/m/K | thermal conductivity (347.22 K, 1802.5 kPa, Gas): 0.02234 ± 0.0014 W/m/K | thermal conductivity (347.3 K, 250.1 kPa, Gas): 0.02135 ± 0.0013 W/m/K | thermal conductivity (347.67 K, 1560.1 kPa, Gas): 0.02199 ± 0.0014 W/m/K | thermal conductivity (347.86 K, 1253.4 kPa, Gas): 0.02137 ± 0.0013 W/m/K | thermal conductivity (348.08 K, 1001.2 kPa, Gas): 0.02122 ± 0.0013 W/m/K | thermal conductivity (348.34 K, 748.6 kPa, Gas): 0.02136 ± 0.0013 W/m/K | thermal conductivity (348.4 K, 250.1 kPa, Gas): 0.0215 ± 0.0013 W/m/K | thermal conductivity (348.67 K, 454.4 kPa, Gas): 0.02127 ± 0.0013 W/m/K | thermal conductivity (354.61 K, Liquid): 0.081 ± 0.0033 W/m/K | thermal conductivity (354.62 K, Liquid): 0.08121 ± 0.0033 W/m/K and 0.08127 ± 0.0033 W/m/K | thermal conductivity (354.87 K, Liquid): 0.08113 ± 0.0033 W/m/K | thermal conductivity (354.88 K, Liquid): 0.08093 ± 0.0033 W/m/K and 0.08129 ± 0.0033 W/m/K | thermal conductivity (354.89 K, Liquid): 0.08101 ± 0.0033 W/m/K | thermal conductivity (354.97 K, Liquid): 0.08115 ± 0.0033 W/m/K | thermal conductivity (354.99 K, Liquid): 0.08085 ± 0.0033 W/m/K | thermal conductivity (355 K, Liquid): 0.08097 ± 0.0033 W/m/K | thermal conductivity (355.01 K, 2934.5 kPa, Gas): 0.02654 ± 0.0016 W/m/K | thermal conductivity (355.29 K, Liquid): 0.0807 ± 0.0032 W/m/K and 0.08094 ± 0.0033 W/m/K | thermal conductivity (355.3 K, Liquid): 0.08092 ± 0.0033 W/m/K | thermal conductivity (355.37 K, Liquid): 0.08104 ± 0.0033 W/m/K | thermal conductivity (355.38 K, 2586.5 kPa, Gas): 0.02498 ± 0.0015 W/m/K | thermal conductivity (355.38 K, Liquid): 0.08142 ± 0.0033 W/m/K and 0.08125 ± 0.0033 W/m/K
